row,SMILES,melting point [°C]
1,CC1(C)Oc2ccc(C#N)cc2C(Oc2ccnc(O)c2)C1O (stereo not drawn),249 to 250
2,CC(=O)Oc1cc(N(C)C2CCCCC2)c2ccccc2c1OC(C)=O,103 to 105
3,CC1NC(=O)N(c2ccc(F)c(Cl)c2)C1=O (stereo not drawn),174 to 176
4,COC(=O)CC1(c2c(C)c(OC)c(C)c(C)c2OC)C=CC2=NCOC2=C1 (stereo not drawn),68 to 69
5,COc1cc(C(=O)N2CC(O)CC2C(N)=O)cc(OC)c1OC (stereo not drawn),172
6,C#CCSc1nc(=O)n(CC#C)cc1F,135
7,CNC(=O)c1c(I)c(C(=O)O)c(I)c(C(=O)NC)c1I,> 300
8,O=C=Nc1cc(Cl)c(Br)cc1CBr,48 to 50
9,Cc1ccc(C(=O)CC(O)C(=O)O)cc1 (stereo not drawn),92 to 100
10,CO[C@H](C)C(=O)N[C@H]1CC[C@H](CCN2CCN(c3nccc4c3CCO4)CC2)CC1,159
11,CC(=O)c1c(C(=O)N(C)C)[nH]c2ccc(Cl)cc12,150 to 155
12,Cc1onc(-c2ccc(Cl)cc2)c1CCC(=O)O,187 to 188
13,Nc1ccc2ccc(N3CCCC3)nc2n1,251
14,O=C(O)c1csc(CO)c1,149
15,COC(=O)[C@H](Cc1ccc(NC=O)cc1)NC(C)=O,126
16,CCN1C(=O)C(=CC=C2C=C(c3ccccc3)C=C3N2c2ccccc2C3(C)C)C(=O)N(CC)C1=S,> 310
17,O=C(O)Cc1nc(C(=O)c2ccccc2)no1,143 to 144
18,c1ccc2c(c1)OC[C@H](CN1CCC(CNc3nc4cccnc4s3)CC1)O2,160
19,c1ccc(-c2nsc(N3CCN(c4ccccn4)CC3)n2)cc1,137 to 138
20,CCOC(=O)c1sc(N)nc1C(C)(C)C,99 to 100
21,CCOc1cc2c(Nc3cc(OC)c(Cl)cc3Cl)c(C#N)cnc2cc1I,213 to 215
22,CNC(=O)Nc1cc(C(C)(C)C)on1,187 to 188
23,CCCc1c(C=O)ncn1S(=O)(=O)N(C)C,57 to 58
24,O=C(O)C12CC3CC(F)(CC(F)(C3)C1)C2,162 to 164

# Further lines, results first:
row,melting point [°C],SMILES
1,201 to 204,COc1ccc(CNC(=S)N2CCN(c3ncnc4cc(OC)c(OC)cc34)CC2)cc1
2,136 to 138,O=C(O)Cc1ccc(NC(=O)CCCCCNC(=O)OCc2ccccc2)cc1
3,175 to 178,Cc1nc(-n2cc(-c3ccccc3)nn2)sc1C(=O)NCc1ccccc1
4,138 to 141,CC1(C=C(Cl)Cl)CN(C(=O)Nc2ccc(OC(F)(F)F)cc2)N=C1c1ccc(Cl)cc1 (stereo not drawn)
5,208 to 210,Cc1nn(C)c2nc(N)c(-c3ccc(F)cc3)nc12
6,82 to 83,CCOC(=O)Cc1nc(-c2ccccc2)n(C)n1
7,128 to 130,CC(C)Oc1cc(Oc2ccc(C(F)(F)F)cn2)ccc1CCCOc1cc(CCC(=O)O)n(C)n1
8,196 to 220,COc1cccc(C(=O)OC(=C2C(=O)N(C(N)=O)c3cc(Cl)c(F)cc32)c2cccs2)c1
9,122 to 123,CN(C(=O)OC(C)(C)C)c1cc(Oc2ccc(-c3ccccc3)cc2)ccc1N
10,110 to 114,COc1cc(OC)nc(NC(=O)NS(=O)(=O)c2sc(Cl)c3c2C(=O)OCC3)n1
11,159 to 160,CC(CN1CCC(NC(=O)C2CC2)CC1)c1ccc(C(=O)c2ccccc2)cc1 (stereo not drawn)
12,197 to 198,CCC(C)C(NC(=O)OCc1ccccc1)C(=O)NC(C(=O)Nc1n[nH]c(=S)s1)C(C)C (stereo not drawn)
13,200 to 201,COc1cccc(C(C)n2nc(C(=O)O)c3c2-c2ccc(OCc4cncnc4)cc2CC3)c1 (stereo not drawn)
14,63 to 64,CCOC(=O)C1=C(Cl)/C(=N/OS(C)(=O)=O)CC(c2ccc(Cl)cc2F)N1 (stereo not drawn)
15,138 to 142,Cc1ccc(CNC(=S)N2CCc3c([nH]c4ccccc34)C2c2ccc3c(c2)OCO3)cc1C (stereo not drawn)
16,205 to 208,COC(=O)c1cc(=O)c2c(C(F)(F)F)c3c(=O)cc(C(=O)OC)[nH]c3c(Cl)c2[nH]1
17,191 to 193,CC(=O)N1CC[C@H](Oc2ccc(C=Cc3cc4cc(C#N)ccc4o3)cc2O)C1

row,melting point [°C],SMILES
1,159 to 161,CC(C)c1nc(-c2ccccc2)n(-c2ccc(F)cc2)c1C=O
2,100 to 103,COc1ccc(NS(=O)(=O)c2sc3ccc(Cl)cc3c2C)cc1N1CCN(C(=O)OC(C)(C)C)CC1
3,223 to 225,COc1nc(Cl)cnc1NS(=O)(=O)c1ccccc1-c1ccc(OC(C)C(=O)O)cc1 (stereo not drawn)
4,129 to 130,Cc1ccccc1-c1cc(N2CCOCC2)ncc1N(C)C(=O)C(C)(C)c1cc(C(F)(F)F)cc(C(F)(F)F)c1
5,241 to 243,Cc1oc(-c2ccc(C(F)(F)F)cc2)nc1-c1ccc(-c2cc(Br)c(OC(Cc3ccccc3)C(=O)O)c(Br)c2)cc1 (stereo not drawn)
6,98 to 99,CCOC(=O)c1cc2ccc(-c3ccc(C)cc3)cc2n1C
7,135 to 137,COc1ccc(C#N)cc1C(=O)NCCN1CCC(=C(O)c2ccc(F)cc2)CC1
8,169,Cn1ncnc1COc1nn2c(-c3ccccc3F)nncc2c1-c1ccccc1F
9,209 to 211,COc1ccc(C)cc1NC(=O)Nc1ccc(N2CCN(C(=O)Nc3ncccc3C)CC2)cc1
10,94 to 95,CCCCCCc1cc2c(cc1C(=O)Oc1ccc(C(=O)OCc3ccccc3)cn1)C(C)(C)CCC2(C)C
11,179 to 181,Nc1sc2c(c1C(=O)c1ccc(Cl)c3ccccc13)CCCC2
12,175 to 176,CCc1cc2ccccc2c(CNC(=O)c2cc(OC)c(OC)c(OC)c2)n1
13,98 to 100,Brc1cccc(C2Cc3cnc(Nc4ccc(CCNCc5ccccc5)cc4)nc3-c3ccccc32)c1 (stereo not drawn)
14,> 300,CCn1cc(C(=O)O)c(=O)c2ccc(N3CCN(c4ncccn4)CC3)c(OC(F)F)c21
15,273 to 275,NC1=NN(c2nc3ccccc3s2)C(c2ccc(Cl)cc2)C1 (stereo not drawn)
16,229,CC(C)NS(=O)(=O)c1cccc(NC(=O)c2cnn3c(C(F)F)cc(-c4ccc(C(F)(F)F)cc4)nc23)c1
17,178,COc1cc2c(cc1OC)CN(CCc1cccc(NC(=O)c3cccc4c(=O)c5cccc(F)c5[nH]c34)c1)CC2

# Source: a melting point compilation (Tetko et al.; mined from patent text by program, amines drawn as free bases though some values may be those of a salt)
